Values after ≈ are worked out from the molar mass of the structure shown.
What was measured:
[1] = target: T1, Mitogen-activated protein kinase kinase kinase kinase 3 (Homo sapiens, UniProt Q8IVH8); experiment: Inhibition of human recombinant GST-tagged MAP4K3 ([…]) extracted from Baculovirus expression system
T1 sequence (Q8IVH8 whole entry): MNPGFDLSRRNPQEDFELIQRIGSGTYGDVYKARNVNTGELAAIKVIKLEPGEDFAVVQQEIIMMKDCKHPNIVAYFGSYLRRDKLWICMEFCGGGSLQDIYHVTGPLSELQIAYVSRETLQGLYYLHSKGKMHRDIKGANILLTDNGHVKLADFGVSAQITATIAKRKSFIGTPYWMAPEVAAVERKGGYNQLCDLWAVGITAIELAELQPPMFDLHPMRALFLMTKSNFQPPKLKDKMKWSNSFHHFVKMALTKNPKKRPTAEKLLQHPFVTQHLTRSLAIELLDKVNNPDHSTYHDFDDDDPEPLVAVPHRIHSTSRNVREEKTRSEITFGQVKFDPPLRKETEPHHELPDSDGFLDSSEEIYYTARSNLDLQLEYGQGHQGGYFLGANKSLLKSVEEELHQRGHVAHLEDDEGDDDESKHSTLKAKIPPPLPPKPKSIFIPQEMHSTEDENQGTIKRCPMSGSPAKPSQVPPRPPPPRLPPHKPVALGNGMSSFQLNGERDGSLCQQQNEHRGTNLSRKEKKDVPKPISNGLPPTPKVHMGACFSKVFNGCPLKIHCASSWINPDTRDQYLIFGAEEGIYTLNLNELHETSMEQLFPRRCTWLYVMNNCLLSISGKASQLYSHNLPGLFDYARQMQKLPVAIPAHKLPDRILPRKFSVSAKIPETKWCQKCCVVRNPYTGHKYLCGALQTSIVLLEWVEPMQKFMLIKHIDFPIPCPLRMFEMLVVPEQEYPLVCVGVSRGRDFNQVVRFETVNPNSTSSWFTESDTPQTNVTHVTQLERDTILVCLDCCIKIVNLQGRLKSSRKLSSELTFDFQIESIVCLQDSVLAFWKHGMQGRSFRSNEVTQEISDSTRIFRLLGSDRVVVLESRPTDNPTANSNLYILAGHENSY

[2] = target: Mitogen-activated protein kinase kinase kinase kinase 5 (Homo sapiens, UniProt Q9Y4K4); experiment: Inhibition of human GST-tagged full length recombinant MAP4K5 expressed in insect cells; design: species or system Insect cell
Sequence of Mitogen-activated protein kinase kinase kinase kinase 5 (Q9Y4K4 whole entry, the tested form may be a part): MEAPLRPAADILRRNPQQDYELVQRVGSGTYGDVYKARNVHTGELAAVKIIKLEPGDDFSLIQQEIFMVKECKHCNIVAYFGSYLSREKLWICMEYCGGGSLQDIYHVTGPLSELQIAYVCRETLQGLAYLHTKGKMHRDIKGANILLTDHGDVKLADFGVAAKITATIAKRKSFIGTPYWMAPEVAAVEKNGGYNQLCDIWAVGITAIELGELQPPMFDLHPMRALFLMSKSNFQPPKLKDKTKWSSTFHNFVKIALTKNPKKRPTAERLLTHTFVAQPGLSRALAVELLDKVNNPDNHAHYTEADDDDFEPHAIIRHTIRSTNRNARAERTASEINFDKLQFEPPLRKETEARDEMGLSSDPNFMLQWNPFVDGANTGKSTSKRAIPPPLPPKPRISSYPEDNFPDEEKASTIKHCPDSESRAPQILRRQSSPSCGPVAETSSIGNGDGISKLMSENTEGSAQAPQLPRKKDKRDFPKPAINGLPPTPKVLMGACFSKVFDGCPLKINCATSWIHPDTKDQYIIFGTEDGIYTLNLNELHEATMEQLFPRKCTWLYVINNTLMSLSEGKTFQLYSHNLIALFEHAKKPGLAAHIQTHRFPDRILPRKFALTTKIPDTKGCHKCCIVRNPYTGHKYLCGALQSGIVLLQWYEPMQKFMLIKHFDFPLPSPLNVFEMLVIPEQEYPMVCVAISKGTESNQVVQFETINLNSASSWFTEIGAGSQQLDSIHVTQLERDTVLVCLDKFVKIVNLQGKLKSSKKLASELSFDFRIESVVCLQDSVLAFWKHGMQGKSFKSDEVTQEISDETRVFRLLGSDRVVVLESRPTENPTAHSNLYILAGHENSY

Misshapen-like kinase 1 = Misshapen-like kinase 1 (Homo sapiens, UniProt Q8N4C8); experiment: Inhibition of catalytic domain human GST-tagged N-terminal MAP4K6 (1 to 314 residues) expressed in insect Sf21 cells
Sequence of Misshapen-like kinase 1 (Q8N4C8 whole entry, the tested form may be a part): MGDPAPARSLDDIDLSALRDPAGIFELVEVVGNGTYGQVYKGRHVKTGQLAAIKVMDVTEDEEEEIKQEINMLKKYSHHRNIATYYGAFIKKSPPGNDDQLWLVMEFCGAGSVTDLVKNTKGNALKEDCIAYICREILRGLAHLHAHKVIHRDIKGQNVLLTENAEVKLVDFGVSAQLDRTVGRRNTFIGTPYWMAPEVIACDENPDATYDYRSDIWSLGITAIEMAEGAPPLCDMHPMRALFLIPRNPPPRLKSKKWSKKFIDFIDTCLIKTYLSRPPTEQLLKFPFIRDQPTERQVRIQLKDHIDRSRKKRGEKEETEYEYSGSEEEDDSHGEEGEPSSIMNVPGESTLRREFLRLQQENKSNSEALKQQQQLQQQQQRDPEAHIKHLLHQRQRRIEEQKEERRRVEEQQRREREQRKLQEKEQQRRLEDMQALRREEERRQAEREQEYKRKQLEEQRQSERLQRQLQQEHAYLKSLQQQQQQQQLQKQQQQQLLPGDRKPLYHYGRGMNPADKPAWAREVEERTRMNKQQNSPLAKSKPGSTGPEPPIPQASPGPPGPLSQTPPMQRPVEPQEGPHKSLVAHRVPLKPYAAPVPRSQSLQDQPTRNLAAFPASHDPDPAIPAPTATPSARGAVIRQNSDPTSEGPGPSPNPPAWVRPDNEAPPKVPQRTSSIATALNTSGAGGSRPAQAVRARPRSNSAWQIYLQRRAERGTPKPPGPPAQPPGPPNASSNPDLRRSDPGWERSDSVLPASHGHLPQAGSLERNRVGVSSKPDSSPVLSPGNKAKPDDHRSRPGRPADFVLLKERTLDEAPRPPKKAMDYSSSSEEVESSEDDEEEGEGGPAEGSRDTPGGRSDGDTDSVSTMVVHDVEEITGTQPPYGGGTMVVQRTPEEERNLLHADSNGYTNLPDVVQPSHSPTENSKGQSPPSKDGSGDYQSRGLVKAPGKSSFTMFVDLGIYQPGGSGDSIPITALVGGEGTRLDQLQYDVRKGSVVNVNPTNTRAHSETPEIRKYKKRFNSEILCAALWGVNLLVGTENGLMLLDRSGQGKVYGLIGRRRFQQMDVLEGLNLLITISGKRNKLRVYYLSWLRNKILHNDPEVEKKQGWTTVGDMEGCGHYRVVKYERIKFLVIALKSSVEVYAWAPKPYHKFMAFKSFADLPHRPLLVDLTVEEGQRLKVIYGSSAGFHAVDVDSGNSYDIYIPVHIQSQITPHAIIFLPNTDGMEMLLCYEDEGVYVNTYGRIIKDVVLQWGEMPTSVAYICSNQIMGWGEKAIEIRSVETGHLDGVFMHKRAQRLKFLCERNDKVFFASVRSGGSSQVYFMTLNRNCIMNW

[3] = target: Serine/threonine-protein kinase 3 (Homo sapiens, UniProt Q13188); experiment: Inhibition of MST2 (unknown origin)
Sequence of Serine/threonine-protein kinase 3 (Q13188 whole entry): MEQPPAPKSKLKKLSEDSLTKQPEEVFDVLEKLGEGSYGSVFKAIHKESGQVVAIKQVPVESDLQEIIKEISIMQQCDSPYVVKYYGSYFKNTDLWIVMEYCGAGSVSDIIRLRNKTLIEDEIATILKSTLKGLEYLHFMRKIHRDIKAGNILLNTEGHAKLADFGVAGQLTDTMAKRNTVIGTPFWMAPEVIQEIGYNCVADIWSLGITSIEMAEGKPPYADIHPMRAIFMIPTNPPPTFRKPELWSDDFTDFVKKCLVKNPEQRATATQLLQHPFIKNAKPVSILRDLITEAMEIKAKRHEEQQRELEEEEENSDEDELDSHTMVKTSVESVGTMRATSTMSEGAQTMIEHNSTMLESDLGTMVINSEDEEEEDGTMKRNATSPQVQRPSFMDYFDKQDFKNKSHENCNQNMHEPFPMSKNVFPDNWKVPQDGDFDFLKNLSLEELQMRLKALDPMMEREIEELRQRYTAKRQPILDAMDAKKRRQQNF

[4] = target: Cyclin-dependent kinase 2 (Homo sapiens, UniProt P24941); experiment: Inhibition of CDK2 (unknown origin)
[5] = target: Tyrosine-protein kinase JAK1 (Homo sapiens, UniProt P23458); experiment: Inhibition of JAK1 (unknown origin)
Sequence of Tyrosine-protein kinase JAK1 (P23458 whole entry): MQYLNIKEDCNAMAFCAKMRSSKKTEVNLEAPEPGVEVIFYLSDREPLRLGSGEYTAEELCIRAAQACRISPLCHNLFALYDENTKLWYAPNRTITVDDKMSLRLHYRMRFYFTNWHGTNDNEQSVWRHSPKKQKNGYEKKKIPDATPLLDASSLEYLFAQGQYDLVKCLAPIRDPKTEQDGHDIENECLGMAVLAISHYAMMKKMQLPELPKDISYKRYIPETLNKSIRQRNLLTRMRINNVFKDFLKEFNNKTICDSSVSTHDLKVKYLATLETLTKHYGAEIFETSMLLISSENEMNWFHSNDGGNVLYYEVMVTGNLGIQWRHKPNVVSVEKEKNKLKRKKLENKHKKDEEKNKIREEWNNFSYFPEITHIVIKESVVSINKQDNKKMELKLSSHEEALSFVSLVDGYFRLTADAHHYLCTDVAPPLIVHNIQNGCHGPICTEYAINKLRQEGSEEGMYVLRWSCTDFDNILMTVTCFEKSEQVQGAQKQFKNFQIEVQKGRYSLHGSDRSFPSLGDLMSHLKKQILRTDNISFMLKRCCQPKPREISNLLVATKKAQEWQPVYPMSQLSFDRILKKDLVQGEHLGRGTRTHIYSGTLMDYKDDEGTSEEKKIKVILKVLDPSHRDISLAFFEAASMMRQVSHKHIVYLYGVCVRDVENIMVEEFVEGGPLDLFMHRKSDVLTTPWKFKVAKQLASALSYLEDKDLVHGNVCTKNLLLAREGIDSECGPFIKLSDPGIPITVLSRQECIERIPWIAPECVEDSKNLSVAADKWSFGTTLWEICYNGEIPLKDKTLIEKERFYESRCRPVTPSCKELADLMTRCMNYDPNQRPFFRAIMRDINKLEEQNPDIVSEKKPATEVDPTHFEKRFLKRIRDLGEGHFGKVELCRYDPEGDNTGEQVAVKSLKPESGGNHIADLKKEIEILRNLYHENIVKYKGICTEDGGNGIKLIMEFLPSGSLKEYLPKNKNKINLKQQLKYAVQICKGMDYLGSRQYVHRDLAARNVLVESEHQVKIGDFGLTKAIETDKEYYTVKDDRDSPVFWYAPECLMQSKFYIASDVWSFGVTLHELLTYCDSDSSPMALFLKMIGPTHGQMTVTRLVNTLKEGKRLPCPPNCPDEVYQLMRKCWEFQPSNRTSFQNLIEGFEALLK

[6] = Toxicity in Balb/c mouse assessed as effect on body weight loss at 1.5 to 12 mg/kg, po BID measured after 15 days in presence of anti-PD1; format: organism-based; settings: in vivo, 360 h, dose 1.5-12 mg/kg, time 15 day
MC-38 = experiment: Antitumor activity against mouse MC38 cells implanted in C57BL/6 mouse model assessed as tumor growth inhibition at 3 mg/kg, po BID measured after 12 days relative to control; format: functional; settings: MC-38, 288 h, time 12 day, read-out: TGI
[7] = Toxicity in C57BL/6 mouse implanted with mouse MC38 cells assessed as effect on body weight loss at high dose, po BID measured after 12 days; format: organism-based; settings: in vivo, 288 h, time 12 day
[8] = Kinetic solubility of the compound in PBS buffer at pH 7.4 measured after 24 hrs by HPL-UV analysis; format: physicochemical; settings: read-out: Kinetic_solubility
[9] = Permeability of the compound in human Caco-2 cells measured after 90 mins by UPLC-MS/MS analysis; format: ADME, cell-based; settings: read-out: permeability
Cytochrome P450 1A2 = Cytochrome P450 1A2 (Homo sapiens, UniProt P05177); experiment: Inhibition of CYP1A2 in human liver microsomes using phenacetin O-demethylation as substrate incubated for 10 mins in presence of NADPH by LC-MS/MS analysis; format: ADME, Microsome
Sequence of Cytochrome P450 1A2 (P05177 whole entry): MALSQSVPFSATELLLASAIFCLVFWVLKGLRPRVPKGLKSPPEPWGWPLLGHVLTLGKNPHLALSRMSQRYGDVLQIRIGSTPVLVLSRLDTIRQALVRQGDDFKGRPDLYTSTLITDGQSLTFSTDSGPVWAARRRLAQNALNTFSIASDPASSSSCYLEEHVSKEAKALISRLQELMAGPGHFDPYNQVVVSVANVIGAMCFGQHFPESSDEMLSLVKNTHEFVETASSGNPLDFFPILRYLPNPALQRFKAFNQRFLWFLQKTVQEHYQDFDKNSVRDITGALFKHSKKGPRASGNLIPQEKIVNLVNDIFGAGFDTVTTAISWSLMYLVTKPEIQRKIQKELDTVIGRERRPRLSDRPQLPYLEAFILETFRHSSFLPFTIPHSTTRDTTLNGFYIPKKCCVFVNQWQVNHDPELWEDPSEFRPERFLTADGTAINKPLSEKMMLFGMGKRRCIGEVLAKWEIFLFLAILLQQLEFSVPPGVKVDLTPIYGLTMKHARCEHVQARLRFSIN

Cytochrome P450 2D6 = Cytochrome P450 2D6 (Homo sapiens, UniProt P10635); experiment: Inhibition of CYP2D6 in human liver microsomes using O-demethylation as substrate incubated for 10 mins in presence of NADPH by LC-MS/MS analysis; format: ADME, Microsome
Sequence of Cytochrome P450 2D6 (P10635 whole entry): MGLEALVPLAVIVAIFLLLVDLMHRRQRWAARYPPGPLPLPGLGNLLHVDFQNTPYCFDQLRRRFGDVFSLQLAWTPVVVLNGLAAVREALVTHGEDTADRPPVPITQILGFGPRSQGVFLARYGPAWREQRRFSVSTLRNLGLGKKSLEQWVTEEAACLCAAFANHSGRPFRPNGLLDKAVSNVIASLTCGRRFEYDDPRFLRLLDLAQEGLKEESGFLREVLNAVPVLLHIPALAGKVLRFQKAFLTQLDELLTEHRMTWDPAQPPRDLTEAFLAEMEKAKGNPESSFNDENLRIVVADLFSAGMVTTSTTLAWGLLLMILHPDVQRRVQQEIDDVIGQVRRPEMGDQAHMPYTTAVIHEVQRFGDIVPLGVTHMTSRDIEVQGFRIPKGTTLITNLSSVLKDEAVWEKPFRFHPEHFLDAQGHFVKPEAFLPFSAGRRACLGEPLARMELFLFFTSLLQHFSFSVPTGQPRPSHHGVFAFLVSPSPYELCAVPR

in vivo [10] = settings: Balb/c, mouse, iv, 1 mg/kg
Description: Volume of distribution in Balb/c mouse at 1 mg/kg, iv

in vivo [11] = settings: Sprague-Dawley, rat, plasma, iv, 1 mg/kg
Description: Clearance in Sprague-Dawley rat plasma at 1 mg/kg, iv

in vivo [12] = settings: Beagle, dog, plasma, iv, 1 mg/kg
Description: Clearance in Beagle dog plasma at 1 mg/kg, iv

COc1cc(Nc2ccc3c(n2)CN(C)C32CCN(C3COC3)CC2)c(C(N)=O)nc1-c1cccc2c1ncn2C
IC50 [1]: 325 nM
IC50 [2]: 185 nM
IC50 (Misshapen-like kinase 1): 116 nM
IC50 [3]: > 10 µM
IC50 [4]: > 10 µM
IC50 [5]: > 10 µM
Activity [6]: Non-toxic
inhibition in vivo at 3 mg/kg (MC-38): 34.9%
Activity [7]: Non-toxic
solubility kinetic at 24 h [8]: 2.14 µM (≈ 1.19 µg/mL)
Papp at […] [9]: 4.2 ×10⁻⁶ cm/s
IC50 (Cytochrome P450 1A2): > 50 µM
IC50 (Cytochrome P450 2D6): > 50 µM
Vd (in vivo [10]): 2.13 L/kg
clearance (in vivo [11]): 9.67 mL/min/kg
clearance (in vivo [12]): 11.4 mL/min/kg

Reference: ChEMBL document CHEMBL6074671, “Discovery of Pyridine-2-Carboxamides Derivatives as Potent and Selective HPK1 Inhibitors for the Treatment of Cancer” (J Med Chem, 2024)
